Laboratory results from ChEMBL document CHEMBL1138830, “On the function of the 14 A long internal cavity of histone deacetylase-like protein: implications for the design of histone deacetylase inhibitors” (J Med Chem, 2004).

These compounds were tested against Histone deacetylase 1 (Homo sapiens, UniProt Q13547) (assay: Inhibitory activity against human Histone deacetylase 1).
Histone deacetylase 1, sequence (Q13547 whole entry): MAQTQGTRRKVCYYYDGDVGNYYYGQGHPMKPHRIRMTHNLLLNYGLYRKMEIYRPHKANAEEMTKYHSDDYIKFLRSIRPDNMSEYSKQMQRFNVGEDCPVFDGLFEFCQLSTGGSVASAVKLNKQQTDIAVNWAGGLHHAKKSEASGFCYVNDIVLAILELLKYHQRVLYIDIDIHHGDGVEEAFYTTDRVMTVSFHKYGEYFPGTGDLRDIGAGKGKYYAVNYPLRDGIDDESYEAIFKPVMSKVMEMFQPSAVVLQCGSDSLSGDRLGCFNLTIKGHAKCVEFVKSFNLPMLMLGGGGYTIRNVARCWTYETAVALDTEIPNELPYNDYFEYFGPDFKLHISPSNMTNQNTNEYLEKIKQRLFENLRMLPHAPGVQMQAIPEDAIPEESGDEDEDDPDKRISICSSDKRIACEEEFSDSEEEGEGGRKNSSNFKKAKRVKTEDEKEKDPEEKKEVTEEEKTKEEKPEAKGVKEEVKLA
Compound `O=C(/C=C/c1cccc(C(C(=O)Nc2ccccc2)C(=O)Nc2ccccc2)c1)NO` has an IC50 of 1 nM.
In the case of `O=C(CCCCCC(C(=O)Nc1ccc2ncccc2c1)C(=O)Nc1ccc2ncccc2c1)NO`, the IC50 is reported as 1 nM.
In the case of `O=C(CCCCCC(NC(=O)OCc1ccccc1)C(=O)Nc1cccc2cccnc12)NO` (stereo not drawn), the IC50 is reported as 2.5 nM.
